Results: patent EP0970067B1, “(METHYLSULFONYL)PHENYL-2-(5H)-FURANONES WITH OXYGEN LINK AS COX-2 INHIBITORS” (Merck Frosst Canada & Co., priority 1997, dated 1998)

Tests used:
Rat Paw Edema = experiment: Rat paw edema assay (carrageenan-induced); type: in vivo, Male Sprague-Dawley rats; details: po, 1 hr before subplantar carrageenan, paw volume measured three hr later
Experimental: Male Sprague-Dawley rats (150-200 g) are fasted overnight and are given, po, either vehicle (1% methocel or 5% Tween 80) or a test compound. One hr later, a line is drawn using a permanent marker at the level above the ankle in one hind paw to define the area of the paw to be monitored. The paw volume (V0) is measured using a plethysmometer (Ugo-Basile, Italy) based on the principle of water displacement. The animals are then injected subplantarly with […] of 1% carrageenan solution in saline (FMC Corp, Maine) into the paw using an insulin syringe with a 25-gauge needle (i.e. […] carrageenan per paw). Three hr later, the paw volume (V3) is measured and the increases in paw volume (V3 - VO) are calculated. The animals are sacrificed by CO2 asphyxiation and the absence or presence of stomach lesions scored. Data is compared with the vehicle-control values and percent inhibition calculated. All treatment groups are coded to eliminate observer bias.

COX-2 [1] = biological target: T1, COX-2 (Homo sapiens, UniProt P35354); experiment: Whole cell COX-2 assay using CHO transfected cell line (PGE2 radioimmunoassay); type: cell-based; set-up: expressed in transfected cells; host or cells: CHO [hCOX-2], stably transfected with pCDNAIII; details: CHO [hCOX-2] cells; PGE2 synthesis in response to arachidonic acid
T1 sequence (P35354 18-604): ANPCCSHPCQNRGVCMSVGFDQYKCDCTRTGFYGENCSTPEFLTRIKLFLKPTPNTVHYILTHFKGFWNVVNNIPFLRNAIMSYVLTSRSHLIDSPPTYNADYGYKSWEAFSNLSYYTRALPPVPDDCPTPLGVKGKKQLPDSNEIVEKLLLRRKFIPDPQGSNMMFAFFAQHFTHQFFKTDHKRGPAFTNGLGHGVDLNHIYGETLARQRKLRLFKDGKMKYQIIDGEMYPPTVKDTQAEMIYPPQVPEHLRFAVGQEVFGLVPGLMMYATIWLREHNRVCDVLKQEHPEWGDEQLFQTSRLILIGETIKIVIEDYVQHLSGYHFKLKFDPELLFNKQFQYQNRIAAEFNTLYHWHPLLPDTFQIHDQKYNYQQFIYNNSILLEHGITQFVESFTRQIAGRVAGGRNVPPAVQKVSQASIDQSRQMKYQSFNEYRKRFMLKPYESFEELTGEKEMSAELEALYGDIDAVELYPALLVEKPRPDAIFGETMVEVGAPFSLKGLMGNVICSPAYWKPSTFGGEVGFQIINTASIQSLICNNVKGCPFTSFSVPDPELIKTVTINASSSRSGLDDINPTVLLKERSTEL
Experimental: (§1) Compounds are tested as inhibitors of cyclooxygenase activity in whole cell cyclooxygenase assays. These assays measure prostaglandin E2 synthesis in response to arachidonic acid, using a radioimmunoassay. Cells used for these assays are chinese hamster ovary (CHO) cell lines which have been stably transfected with an eukaryotic expression vector […] containing either the human Cox-1 or Cox-2 CDNA's. U937 cell microsomes are also used to measure Cox-1 activity.
Chinese hamster ovary (CHO) cell lines which have been stably transfected with an eukaryotic expression vector pCDNAIII containing either the human COX-1 or COX-2 cDNA's are used for the assay. These cell lines are referred to as CHO [hCOX-1] and CHO [hCOX-2], respectively. For cyclooxygenase assays, CHO[hCOX-1] cells from suspension cultures and CHO[hCOX-2] cells prepared by trypsinization of adherent cultures are harvested by centrifugation (300 x g, 10 min) and washed once in HBSS containing 15 mM HEPES, pH 7.4, and resuspended in HBSS, 15 mM HEPES, pH 7.4, at a cell concentration of 1.5 x 10^6 cells/ml. Drugs to be tested are dissolved in DMSO to 66.7-fold the highest test drug concentration. […] Cells (0.3 x 10^6 cells in 200 µl) are preincubated with 3 µl of the test drug or DMSO vehicle for 15 min at 37°C. Working solutions of peroxide-free AA (5.5 µM and 110 µM AA for the CHO [hCOX-1] and CHO [COX-2] assays, respectively) are prepared by a 10-fold dilution of a concentrated AA solution in ethanol into HBSS containing 15 mM HEPES, pH 7.4.
(§2) In the assay, inhibition is determined by measuring the amount of prostaglandin E2 (PGE2) synthesized in the presence of arachidonic acid, cyclooxygenase-1 or cyclooxygenase-2 and a putative inhibitor.

COX-2 [2] = biological target: T1, COX-2; experiment: Human whole blood assay, COX-2 (LPS-induced PGE2 production); type: cell-based; set-up: endogenous in cells; host or cells: fresh heparinized human whole blood from volunteers, stimulated with LPS; details: LPS 100 µg/ml, 24 hours at 37°C, read-out: COX-2 (IC50) HWB
Source text: As well, platelets in whole blood contain a large amount of the COX-1 enzyme. Immediately following blood clotting, platelets are activated through a thrombin-mediated mechanism. This reaction results in the production of thromboxane B2 (TxB2) via activation of COX-1. Thus, the effect of test compounds on TxB2 levels following blood clotting can be examined and used as an index for COX-1 activity. Therefore, the degree of selectivity by the test compound can be determined by measuring the levels of PGE2 after LPS induction (COX-2) and TxB2 following blood clotting (COX-1) in the same assay.
Fresh blood is collected in heparinized tubes by venipuncture from both male and female volunteers. The subjects have no apparent inflammatory conditions and have not taken any NSAIDs for at least 7 days prior to blood collection. Plasma is immediately obtained from a 2mL blood aliquot to use as blank (basal levels of PGE2). The remaining blood is incubated with LPS (100 µg/ml final concentration, Sigma Chem, #L-2630 from E. coli; diluted in 0.1% BSA (Phosphate buffered saline) for 5 minutes at room temperature. Five hundred µL aliquots of blood are incubated with either 2µL of vehicle (DMSO) or 2µL of a test compound at final concentrations varying from 10nM to 30µM for 24 hours at 37°C. At the end of the incubation, the blood is centrifuged at 12,000 x g for 5 minutes to obtain plasma. A 100µL aliquot of plasma is mixed with 400µL of methanol for protein precipitation. The supernatant is obtained and is assayed for PGE2 using a radioimmunoassay kit (Amersham, RPA#530) after conversion of PGE2 to its methyl oximate derivative according to the manufacturer's procedure.

human COX-1 = biological target: T2, human COX-1 (Homo sapiens, UniProt P23219); experiment: Whole cell COX-1 assay using CHO transfected cell line (PGE2 radioimmunoassay); type: cell-based; details: CHO [hCOX-1] cells; PGE2 synthesis in response to arachidonic acid
T2 construct: expressed in transfected cells; host or cells: CHO [hCOX-1], stably transfected with pCDNAIII
Experimental: as §1
Chinese hamster ovary (CHO) cell lines which have been stably transfected with an eukaryotic expression vector pCDNAIII containing either the human COX-1 or COX-2 cDNA's are used for the assay. These cell lines are referred to as CHO [hCOX-1] and CHO [hCOX-2], respectively. […]
as §2, with “Compounds of the present invention are inhibitors of cyclooxygenase-2 and are thereby useful in the treatment of cyclooxygenase-2 mediated diseases as enumerated above. […] In” for “In”

T2 sequence (P23219 24-599): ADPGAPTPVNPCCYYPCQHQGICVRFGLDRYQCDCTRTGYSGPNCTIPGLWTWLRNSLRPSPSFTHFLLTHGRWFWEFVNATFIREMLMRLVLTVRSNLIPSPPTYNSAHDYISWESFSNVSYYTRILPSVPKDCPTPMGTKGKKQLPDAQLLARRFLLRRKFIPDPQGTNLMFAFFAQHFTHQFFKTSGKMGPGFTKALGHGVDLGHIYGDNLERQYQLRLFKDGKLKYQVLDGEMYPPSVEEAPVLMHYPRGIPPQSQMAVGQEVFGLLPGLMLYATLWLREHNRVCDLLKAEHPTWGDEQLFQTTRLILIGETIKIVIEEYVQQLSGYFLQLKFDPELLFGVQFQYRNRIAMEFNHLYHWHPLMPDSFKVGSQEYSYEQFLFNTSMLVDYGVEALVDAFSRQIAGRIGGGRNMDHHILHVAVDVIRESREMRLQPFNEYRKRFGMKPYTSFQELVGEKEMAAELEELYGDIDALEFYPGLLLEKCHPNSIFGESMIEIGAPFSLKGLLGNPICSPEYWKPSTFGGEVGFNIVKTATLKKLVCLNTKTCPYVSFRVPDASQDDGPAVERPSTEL

| IC50 (human COX-1) | SMILES | ED50 (Rat Paw Edema) | IC50 (COX-2 [1]) | IC50 (COX-2 [2]) |
| --- | --- | --- | --- | --- |
|  | CC1(C)OC(=O)C(OC(C(F)(F)F)C(F)(F)F)=C1c1ccc(S(C)(=O)=O)cc1 [Example 2, 5,5-Dimethyl-3-(1,1,1,3,3,3-hexafluoropropoxy)-4-(4-methylsulfonyl-phenyl)-5H-furan-2-one] | 1 mg/kg |  |  |
|  | C#CC(C)OC1=C(c2ccc(S(C)(=O)=O)cc2)C(C)(C)OC1=O (stereo not shown) [Example 3, 5,5-Dimethyl-3-((1-methyl-2-propynyl)oxy)-4-(4-methylsulfonylphenyl)-5H-furan-2-one] | 2.4 mg/kg |  |  |
|  | C[C@@H](CO)COC1=C(c2ccc(S(C)(=O)=O)cc2)C(C)(C)OC1=O [Example 8, 3-(((2S)-3-hydroxy-2-methylpropyl)oxy)-5,5-dimethyl-4(4-methyl-sulfonylphenyl)-5H-furan-2-one] | 3.1 mg/kg | 0.5 µM | 0.5 µM |
| 100 µM | C[C@@H](CF)COC1=C(c2ccc(S(C)(=O)=O)cc2)C(C)(C)OC1=O [Example 10, 3-(((2R)-3-Fluoro-2-methylpropyl)oxy)-5,5-dimethyl-4-(4-methylsulfonylphenyl)-5H-furan-2-one] | 3.2 mg/kg |  |  |
| > 50 µM | C[C@H](CF)COC1=C(c2ccc(S(C)(=O)=O)cc2)C(C)(C)OC1=O [Example 11, 3-(((2S)-3-fluoro-2-methylpropyl)oxy)-5,5-dimethyl-4-(4-methylsulfonylphenyl)-5H-furan-2-one] | 2.3 mg/kg |  |  |
|  | CC1(C)OC(=O)C(OC2CCC(F)(F)CC2)=C1c1ccc(S(C)(=O)=O)cc1 [Example 17] | 0.9 mg/kg | 0.3 µM | 0.6 µM |
|  | CC1(C)OC(=O)C(OCC2(CF)CC2)=C1c1ccc(S(C)(=O)=O)cc1 [Example 23, 3-{[1-(fluoromethyl)cyclopropyl]methoxy}-5,5-dimethyl-4-(4-methylsulfonylphenyl)-5H-furan-2-one] | 5.9 mg/kg |  |  |
